Reference: patent publication US9382197B2, “Substituted hydroxamic acids and uses thereof” (Millennium Pharmaceuticals, Inc., priority 2010, dated 2016)

Target: T1, purified human HDAC6 (Homo sapiens, UniProt Q9UBN7)
T1 construct: purchased BPS Bioscience 5006
T1 sequence (Q9UBN7 1-1215): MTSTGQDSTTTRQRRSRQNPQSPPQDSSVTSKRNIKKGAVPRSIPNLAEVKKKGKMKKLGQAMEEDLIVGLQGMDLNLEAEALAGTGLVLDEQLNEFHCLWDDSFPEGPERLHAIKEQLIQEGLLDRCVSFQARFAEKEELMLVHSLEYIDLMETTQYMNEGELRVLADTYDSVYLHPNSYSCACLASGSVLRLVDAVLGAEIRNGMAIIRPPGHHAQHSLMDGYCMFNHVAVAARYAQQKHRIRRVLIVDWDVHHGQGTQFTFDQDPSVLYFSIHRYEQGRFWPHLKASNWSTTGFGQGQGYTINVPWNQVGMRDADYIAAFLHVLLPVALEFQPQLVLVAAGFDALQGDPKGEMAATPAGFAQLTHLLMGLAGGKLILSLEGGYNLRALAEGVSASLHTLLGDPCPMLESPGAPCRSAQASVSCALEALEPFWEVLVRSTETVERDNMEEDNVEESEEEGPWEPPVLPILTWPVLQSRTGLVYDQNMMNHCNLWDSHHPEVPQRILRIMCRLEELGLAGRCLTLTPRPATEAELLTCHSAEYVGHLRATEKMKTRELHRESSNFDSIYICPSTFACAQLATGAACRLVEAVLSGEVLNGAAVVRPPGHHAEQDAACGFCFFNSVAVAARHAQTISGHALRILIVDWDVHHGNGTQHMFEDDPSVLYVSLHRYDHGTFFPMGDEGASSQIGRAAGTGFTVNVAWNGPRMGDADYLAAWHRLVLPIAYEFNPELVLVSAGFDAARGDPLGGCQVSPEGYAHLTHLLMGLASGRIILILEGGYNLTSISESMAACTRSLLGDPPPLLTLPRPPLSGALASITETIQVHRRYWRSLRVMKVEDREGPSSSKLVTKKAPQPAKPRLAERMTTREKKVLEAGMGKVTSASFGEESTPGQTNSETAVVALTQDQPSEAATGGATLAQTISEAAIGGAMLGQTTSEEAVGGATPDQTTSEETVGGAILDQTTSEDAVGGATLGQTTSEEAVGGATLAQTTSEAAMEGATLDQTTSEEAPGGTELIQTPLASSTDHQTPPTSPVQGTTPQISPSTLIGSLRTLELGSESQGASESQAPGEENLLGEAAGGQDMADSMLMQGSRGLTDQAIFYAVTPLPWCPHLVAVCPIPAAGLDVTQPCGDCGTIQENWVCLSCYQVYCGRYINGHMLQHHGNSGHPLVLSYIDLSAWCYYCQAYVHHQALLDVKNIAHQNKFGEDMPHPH
Test: HDAC6 Enzyme Assay
Format: biochemical
Procedure, shortened: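 Purified human HDAC6 incubated 1 h at 30 °C with Ac-Arg-Gly-Lys(Ac)-AMC and compound; trichostatin A stop, trypsin release of AMC, fluorescence Ex 340/Em 460 nm. IC50 from concentration–response relative to DMSO.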

[1] = purified human HDAC6, substrate Ac-Arg-Gly-Lys(Ac)-AMC, 1 hour at 30° C., reported as bins
[2] = bin: greater than 500 nM and less than 1 μM (lower bound in nM, upper bound in μM)

IC50 [1] [nM]	SMILES	also measured
< 100	CC(C)[C@@H](NC(=O)c1cc2ccccc2o1)c1ccc(C(=O)NO)cc1 [Compound I-22, N-((1R)-1-{4-[(hydroxyamino)carbonyl]phenyl}-2-methylpropyl)-1-benzofuran-2-carboxamide]	
< 100	C[C@@H](NC(=O)Nc1cccc2ccccc12)c1ccc(C(=O)NO)cc1 [Compound I-527, N-hydroxy-4-((1R)-1-{[(1-naphthylamino)carbonyl]amino}ethyl)benzamide]	
100 to 500	CC(C)[C@H](NC(=O)c1cc2ccccc2s1)c1ccc(C(=O)NO)cc1 [Compound I-67, N-((1S)-1-{4-[(hydroxyamino)carbonyl]phenyl}-2-methylpropyl)-1-benzothiophene-2-carboxamide]	
< 100	CC(NC(=O)Nc1cc(Cl)ccc1Cl)c1ccc(C(=O)NO)cc1 (stereo not shown) [Compound I-89, 4-[1-({[(2,5-dichlorophenyl)amino]carbonyl}amino)ethyl]-N-hydroxybenzamide]	
< 100	CC(NC(=O)c1ccccc1Cl)c1ccc(C(=O)NO)cc1 (stereo not shown) [Compound I-269, 2-chloro-N-(1-{4-[(hydroxyamino)carbonyl]phenyl}ethyl)benzamide]	
< 100	CC(NC(=O)c1sccc1-n1cccc1)c1ccc(C(=O)NO)cc1 (stereo not shown) [Compound I-228, N-(1-{4-[(hydroxyamino)carbonyl]phenyl}ethyl)-3-(1H-pyrrol-1-yl)thiophene-2-carboxamide]	
< 100	Cc1c(C(=O)NC(C)c2ccc(C(=O)NO)cc2)oc2ccccc12 (stereo not shown) [Compound I-7, N-(1-{4-[(hydroxyamino)carbonyl]phenyl}ethyl)-3-methyl-1-benzofuran-2-carboxamide]	
< 100	CC(NC(=O)CCc1ccccc1)c1ccc(C(=O)NO)cc1 (stereo not shown) [Compound I-45, N-hydroxy-4-{1-[(3-phenylpropanoyl)amino]ethyl}benzamide]	
< 100	C[C@@H](NC(=O)Nc1ccc2c(c1)CCO2)c1ccc(C(=O)NO)cc1 [Compound I-528, 4-((1R)-1-{[(2,3-dihydro-1-benzofuran-5-ylamino)carbonyl]amino}ethyl)-N-hydroxybenzamide]	
< 100	CC(NC(=O)c1cc(-c2ccccc2)n[nH]1)c1ccc(C(=O)NO)cc1 (stereo not shown) [Compound I-109, N-(1-{4-[(hydroxyamino)carbonyl]phenyl}ethyl)-3-phenyl-1H-pyrazole-5-carboxamide]	
< 100	CC(NC(=O)c1ccc(-n2cccc2)cc1)c1ccc(C(=O)NO)cc1 (stereo not shown) [Compound I-63, N-(1-{4-[(hydroxyamino)carbonyl]phenyl}ethyl)-4-(1H-pyrrol-1-yl)benzamide]	
100 to 500	CC(NC(=O)NC(C)c1ccc(C(=O)NO)cc1)c1ccccc1 (stereo not shown) [Compound I-196, N-hydroxy-4-[1-({[(1-phenylethyl)amino]carbonyl}amino)ethyl]benzamide]	
< 100	C[C@@H](NC(=O)c1cc2ccccc2n1C)c1ccc(C(=O)NO)cc1 [Compound I-115, N-((1R)-1-{4-[(hydroxyamino)carbonyl]phenyl}ethyl)-1-methyl-1H-indole-2-carboxamide]	

The remaining lines, values behind:

SMILES	IC50 [1] [nM]	also measured
CCC[C@@H](NS(=O)(=O)c1ccc(C(F)(F)F)cc1)c1ccc(C(=O)NO)cc1 [Compound I-171, N-hydroxy-4-[(1R)-1-({[4-(trifluoromethyl)phenyl]sulfonyl}amino)butyl]benzamide]		IC50 (bin: greater than 1 μM): > 1000 nM
CC(NC(=O)c1cnccn1)c1cccc(C(=O)NO)c1 (stereo not shown) [Compound I-165, N-(1-{3-[(hydroxyamino)carbonyl]phenyl}ethyl)pyrazine-2-carboxamide]		IC50 (bin: greater than 1 μM): > 1000 nM
CC(C)(C)C(NC(=O)c1cc2ccccc2[nH]1)c1ccc(C(=O)NO)cc1 (stereo not shown) [Compound I-127, N-(1-{4-[(hydroxyamino)carbonyl]phenyl}-2,2-dimethylpropyl)-1H-indole-2-carboxamide]	< 100	
COc1ccc(CCCC(=O)NC(C)c2ccc(C(=O)NO)cc2)cc1 (stereo not shown) [Compound I-70, N-hydroxy-4-(1-{[4-(4-methoxyphenyl)butanoyl]amino}ethyl)benzamide]		IC50 (bin: greater than 1 μM): > 1000 nM
COc1ccc(CC(=O)NC(C)c2ccc(C(=O)NO)cc2)cc1 (stereo not shown) [Compound I-159, N-hydroxy-4-(1-{[(4-methoxyphenyl)acetyl]amino}ethyl)benzamide]		IC50 (bin: greater than 1 μM): > 1000 nM
Cc1cc(C(=O)NC(C)c2cccc(C(=O)NO)c2)c(C)[nH]1 (stereo not shown) [Compound I-181, N-(1-{3-[(hydroxyamino)carbonyl]phenyl}ethyl)-2,5-dimethyl-1H-pyrrole-3-carboxamide]		IC50 [2]: 500 to 1000 nM
Cc1nc(C(F)(F)F)c(C(=O)NC(c2ccc(C(=O)NO)cc2)C(C)C)s1 (stereo not shown) [Compound I-139, N-(1-{4-[(hydroxyamino)carbonyl]phenyl}-2-methylpropyl)-2-methyl-4-(trifluoromethyl)-1,3-thiazole-5-carboxamide]		IC50 [2]: 500 to 1000 nM
CC(NC(=O)CC12CC3CC(CC(C3)C1)C2)c1ccc(C(=O)NO)cc1 (stereo not shown) [Compound I-212]		IC50 (bin: greater than 1 μM): > 1000 nM
CC(C)C(NC(=O)c1ccn(C)n1)c1ccc(C(=O)NO)cc1 (stereo not shown) [Compound I-389, N-(1-{4-[(hydroxyamino)carbonyl]phenyl}-2-methylpropyl)-1-methyl-1H-pyrazole-3-carboxamide]	< 100	
CC(C)(C)C(NC(=O)C1CCCCC1)c1ccc(C(=O)NO)cc1 (stereo not shown) [Compound I-265, 4-{1-[(cyclohexylcarbonyl)amino]-2,2-dimethylpropyl}-N-hydroxybenzamide]		IC50 (bin: greater than 1 μM): > 1000 nM
COc1cccc(S(=O)(=O)NC(C)c2ccc(C(=O)NO)cc2)c1 (stereo not shown) [Compound I-23, N-hydroxy-4-(1-{[(3-methoxyphenyl)sulfonyl]amino}ethyl)benzamide]	100 to 500	
Cc1cc(C(=O)NC(C)c2cccc(C(=O)NO)c2)c(C)o1 (stereo not shown) [Compound I-104, N-(1-{3-[(hydroxyamino)carbonyl]phenyl}ethyl)-2,5-dimethyl-3-furamide]		IC50 (bin: greater than 1 μM): > 1000 nM
CC(C)[C@@H](Nc1nc(C(F)(F)F)cs1)c1ccc(C(=O)NO)cc1 [Compound I-529, N-hydroxy-4-((1R)-2-methyl-1-{[4-(trifluoromethyl)-1,3-thiazol-2-yl]amino}propyl)benzamide]	< 100	
CC(NC(=O)c1ccc(-c2cnco2)cc1)c1ccc(C(=O)NO)cc1 (stereo not shown) [Compound I-138, N-(1-{4-[(hydroxyamino)carbonyl]phenyl}ethyl)-4-(1,3-oxazol-5-yl)benzamide]	< 100	
CC(NC(=O)c1cccc2c1OCC2)c1ccc(C(=O)NO)cc1 (stereo not shown) [Compound I-134, N-(1-{4-[(hydroxyamino)carbonyl]phenyl}ethyl)-2,3-dihydro-1-benzofuran-7-carboxamide]	< 100	
CC(C)C(NC(=O)Cc1cccc(C(F)(F)F)c1)c1ccc(C(=O)NO)cc1 (stereo not shown) [Compound I-195, N-hydroxy-4-[2-methyl-1-({[3-(trifluoromethyl)phenyl]acetyl}amino)propyl]benzamide]		IC50 [2]: 500 to 1000 nM
Cc1cc(C(=O)NC(c2ccc(C(=O)NO)cc2)C(C)(C)C)c(C)o1 (stereo not shown) [Compound I-9, N-(1-{4-[(hydroxyamino)carbonyl]phenyl}-2,2-dimethylpropyl)-2,5-dimethyl-3-furamide]		IC50 [2]: 500 to 1000 nM
CC(C)C(NC(=O)c1cc2cc(Cl)ccc2[nH]1)c1ccc(C(=O)NO)cc1 (stereo not shown) [Compound I-247, 5-chloro-N-(1-{4-[(hydroxyamino)carbonyl]phenyl}-2-methylpropyl)-1H-indole-2-carboxamide]	< 100	
CC(NC(=O)CC1CCOCC1)c1ccc(C(=O)NO)cc1 (stereo not shown) [Compound I-313, N-hydroxy-4-{1-[(tetrahydro-2H-pyran-4-ylacetyl)amino]ethyl}benzamide]		IC50 (bin: greater than 1 μM): > 1000 nM
CC(C)C(NC(=O)c1cc(C(F)(F)F)cc(C(F)(F)F)c1)c1ccc(C(=O)NO)cc1 (stereo not shown) [Compound I-173, N-(1-{4-[(hydroxyamino)carbonyl]phenyl}-2-methylpropyl)-3,5-bis(trifluoromethyl)benzamide]	100 to 500	
Cc1ccc(NC(=O)N[C@@H](c2ccc(C(=O)NO)cc2)C(C)C)cc1C [Compound I-512, 4-[(1R)-1-({[(3,4-dimethylphenyl)amino]carbonyl}amino)-2-methylpropyl]-N-hydroxybenzamide]	< 100	
